Data as given in patent US8927559B2, “Quinazolinone-type compounds as CRTH2 antagonists” (Merck Sharp & Dohme Corp., priority 2010, dated 2015).
Several values for one entry are separate records, joined by “and”; a condition that tells them apart may be missing. Equal entries are not always repeated.

Target: T1, CRTH2 receptor (hCRTH2) (Homo sapiens, UniProt Q9Y5Y4)
T1 construct: expressed in transfected cells; host or cells: HEK cells (HEK-hCRTH2 cell line), membranes
T1 sequence (Q9Y5Y4 1-395): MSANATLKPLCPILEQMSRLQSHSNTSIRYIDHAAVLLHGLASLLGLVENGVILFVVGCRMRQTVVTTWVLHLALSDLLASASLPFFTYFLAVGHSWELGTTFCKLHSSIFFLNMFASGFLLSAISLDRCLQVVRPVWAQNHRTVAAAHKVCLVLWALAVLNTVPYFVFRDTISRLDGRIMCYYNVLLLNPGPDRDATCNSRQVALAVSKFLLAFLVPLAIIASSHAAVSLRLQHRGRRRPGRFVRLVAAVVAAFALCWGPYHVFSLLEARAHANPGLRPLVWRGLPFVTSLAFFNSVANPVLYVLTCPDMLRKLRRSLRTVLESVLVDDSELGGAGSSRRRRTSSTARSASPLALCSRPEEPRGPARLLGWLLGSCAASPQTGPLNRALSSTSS
Experiment: Radioligand binding assay ([3H]PGD2 competition, membranes of HEK-hCRTH2 cell line)
Conditions: 3.0 nM [3H]PGD2, HEK-hCRTH2 membranes, 60 min, room temperature; read-out: Ki
Experimental: Competing ligands were diluted in dimethylsulfoxide (Me2SO) that was kept constant at 1% (v/v) of the final incubation volume. The reaction was initiated by the addition of 8-20 μg of membrane protein prepared from a HEK-hCRTH2 cell line. Total and non-specific binding were determined in the absence and the presence of […] PGD2, respectively. […] The reaction was routinely conducted for 60 min at room temperature and terminated by rapid filtration through prewetted (0.3% polyethyleneimine) 96-well printed filtermate (Wallac) using a Tomtec harvester. After washing with cold buffer, the filter was dried for 2 minutes in microwave, and Meltilex Scintillator sheet (Wallac) was melted on for 2 min.

Ki	SMILES
≤ 10 nM	O=C(O)CCCCc1nc2cc(C3=NOC[C@H](c4ccc(F)cc4)N3)ccc2c(=O)n1-c1ccc(F)cc1 [Example 37E]
10 to 50 nM	O=C(O)CCCCc1nc2cc(-c3cc(CSc4nc5cc(OC(F)F)ccc5[nH]4)on3)ccc2c(=O)n1-c1ccc(F)cc1 [Example 39, 5-(7-(5-((5-(difluoromethoxy)-1H-benzo[d]imidazol-2-ylthio)methyl)isoxazol-3-yl)-3-(4-fluorophenyl)-4-oxo-3,4-dihydroquinazolin-2-yl)pentanoic acid]
10 to 50 nM	O=C(O)CCCCc1nc2cc(-c3cc(CS(=O)(=O)c4nc5cc(OC(F)F)ccc5[nH]4)on3)ccc2c(=O)n1-c1ccc(F)cc1 [Example 39E, 5-(7-(5-((5-(difluoromethoxy)-1H-benzo[d]imidazol-2-ylsulfonyl)methyl)isoxazol-3-yl)-3-(4-fluorophenyl)-4-oxo-3,4-dihydroquinazolin-2-yl)pentanoic acid]
≤ 10 nM	O=C(O)CCCCc1nc2cc(-c3cc(CSc4ccc(F)cc4)on3)ccc2c(=O)n1-c1ccc(F)cc1 [Example 39F]
10 to 50 nM	O=C(O)CCCCc1nc2cc(-c3cc(CSc4ccccn4)on3)ccc2c(=O)n1-c1ccc(F)cc1 [Example 39G]
10 to 50 nM	COc1ccc2[nH]c(SCc3cc(-c4ccc5c(=O)n(-c6ccc(F)cc6)c(CCCCC(=O)O)nc5c4)no3)nc2c1 [Example 39H]
10 to 50 nM	O=C(O)CCCCc1nc2cc(-c3cc(CS(=O)(=O)c4ccccn4)on3)ccc2c(=O)n1-c1ccc(F)cc1 [Example 39I]
≤ 10 nM	COc1ccc2[nH]c(S(=O)(=O)Cc3cc(-c4ccc5c(=O)n(-c6ccc(F)cc6)c(CCCCC(=O)O)nc5c4)no3)nc2c1 [Example 39J]
≤ 10 nM	O=C(O)CCCCc1nc2cc(-c3cc(CSc4nc5ccccc5[nH]4)on3)ccc2c(=O)n1-c1ccc(F)cc1 [Example 39K]
≤ 10 nM	O=C(O)CCCCc1nc2cc(-c3cc(CS(=O)(=O)c4nc5ccccc5[nH]4)on3)ccc2c(=O)n1-c1ccc(F)cc1 [Example 39L]
10 to 50 nM	O=C(O)CCCCc1nc2cc(-c3cc(C[S+]([O-])c4nc5ccccc5[nH]4)on3)ccc2c(=O)n1-c1ccc(F)cc1 (stereo not drawn) [Example 40, 5-(7-(5-((1H-benzo[d]imidazol-2-ylsulfinyl)methyl)isoxazol-3-yl)-3-(4-fluorophenyl)-4-oxo-3,4-dihydroquinazolin-2-yl)pentanoic acid]
≤ 10 nM	CCC1(c2ccccc2)CC(c2ccc3c(=O)n(-c4ccc(F)cc4)c(CCCCC(=O)O)nc3c2)=NO1 (stereo not drawn) [Example 41]
≤ 10 nM	CC[C@H](c1ccc(F)cc1)c1cc(-c2ccc3c(=O)n(-c4ccc(F)cc4)c(CCCCC(=O)O)nc3c2)no1 [Example 43, (R)-5-(3-(4-fluorophenyl)-7-(5-(1-(4-fluorophenyl)propyl)isoxazol-3-yl)-4-oxo-3,4-dihydroquinazolin-2-yl)pentanoic acid]
≤ 10 nM	CC[C@@H](c1ccc(F)cc1)c1cc(-c2ccc3c(=O)n(-c4ccc(F)cc4)c(CCCCC(=O)O)nc3c2)no1 [Example 43D]
10 to 50 nM and 32.6 nM	C[C@@H](OCc1ccc(F)cc1)c1cc(-c2ccc3c(=O)n(-c4ccc(F)cc4)c(CCCCC(=O)O)nc3c2)no1 [Example 44]
≤ 10 nM	O=C(O)CCCCc1nc2cc(-c3cc(Cc4ccccc4)on3)ccc2c(=O)n1-c1ccc(F)cc1 [Example 100]
≤ 10 nM	O=C(O)CCCCc1nc2cc(-c3cc([C@@H](O)c4ccccc4)on3)ccc2c(=O)n1-c1ccc(F)cc1 [Example 101]
≤ 10 nM	O=C(O)CCCCc1nc2cc(-c3cc([C@H](O)c4ccccc4)on3)ccc2c(=O)n1-c1ccc(F)cc1 [Example 102]
≤ 10 nM	Cc1ccccc1-c1cc(-c2ccc3c(=O)n(-c4ccc(F)cc4)c(CCCCC(=O)O)nc3c2)no1 [Example 103]
10 to 50 nM	O=C(O)CCCCc1nc2cc(-c3noc(-c4ccc(C(F)(F)F)cc4)n3)ccc2c(=O)n1-c1ccc(F)cc1 [Example 104]
≤ 10 nM	O=C(O)CCCCc1nc2cc(-c3cn(-c4ccc(F)cc4)nn3)ccc2c(=O)n1-c1ccc(F)cc1 [Example 105]
